The values that follow come from PMC7594721, “Synthesis and biological activity of 2-cyanoacrylamide derivatives tethered to imidazopyridine as TAK1 inhibitors” (Journal of Enzyme Inhibition and Medicinal Chemistry, 2020).

In the test the target is T1, TAK1 (Homo sapiens, UniProt O43318).
T1 construct: purchased Invitrogen (Thermo Fisher Scientific)
T1 sequence (O43318 with tags, fused parts or gaps limits assumed): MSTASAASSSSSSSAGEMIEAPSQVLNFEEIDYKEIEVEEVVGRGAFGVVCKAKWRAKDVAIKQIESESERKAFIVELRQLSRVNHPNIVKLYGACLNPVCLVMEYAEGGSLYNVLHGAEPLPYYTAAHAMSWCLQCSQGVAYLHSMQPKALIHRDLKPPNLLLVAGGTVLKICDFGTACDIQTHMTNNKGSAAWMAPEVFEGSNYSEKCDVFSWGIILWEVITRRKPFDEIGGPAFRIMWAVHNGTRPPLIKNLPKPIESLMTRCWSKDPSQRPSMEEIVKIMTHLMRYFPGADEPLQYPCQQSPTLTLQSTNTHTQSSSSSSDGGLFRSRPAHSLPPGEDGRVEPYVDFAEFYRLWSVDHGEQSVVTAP
Briefly: TAK1 LanthaScreen Eu Kinase Binding Assay (Invitrogen; Table 1 calls it TAK1 enzymatic assay). On the procedure: Kinase assays were performed by Invitrogen (now Thermo Fisher Scientific, Waltham, MA) or Reaction Biology Corp. (Malvern, PA). Inhibitory activity of compounds for TAK1 was evaluated using LanthaScreen® Eu Kinase Binding Assay (Invitrogen, Waltham, MA). The kinase profile of compound 13h was determined by the kinase HotSpot Profiling service of Reaction Biology Corporation. All assays were performed at Km for ATP.
Table 1. TAK1 enzymatic assay with imidazopyridine derivatives. ^a In-vitro enzymatic assay data obtained from Invitrogen^TM.
For orientation: In TR-FRET formats the signal depends on donor and acceptor labels being close together.

pIC50: −log10 of the molar value. “Also recorded” adds a separate entry of the source.

What is called pIC50 is the negative decadic logarithm of the IC50, by convention in mol/L. For the molecule `Cc1cccc(/C=C(\C#N)C(=O)N[C@@H]2CCN(c3c(Cl)cnc4[nH]c(-c5ccc(N6CCN(C)CC6)cc5)nc34)C2)n1` [Compound 13h, (R,E)-N-(1–(6-chloro-2–(4-(4-methylpiperazin-1-yl)phenyl)-3H-imidazo[4,5-b]pyridin-7-yl)pyrrolidin-3-yl)-2-cyano-3-(6-methylpyridin-2-yl)acrylamide], the “TAK1 potency, SAR result in words” value (Table 1 SAR discussion) is reported as “maintained or improved potency; also recorded: excellent”. The pIC50 (read-out: IC50 against TAK1) is 7.57.
